Counter-ions that a name gives are not always drawn.
Test system: Cerebral blood flow after complete cerebral ischemia-reperfusion in dogs
Test: Effect on cerebral blood flow and cortical water content after complete cerebral ischemia-reperfusion in dogs
Format: in vivo, dog (adult mongrel)
Details: for Decrease rate of γ-CBF 3 hours after reperfusion: control 44.3±1.4%
Experimental: Fourteen adult mongrel dogs were anesthetized with a combination of α-chloralose and urethane. Polyethylene catheters were introduced into the femoral artery and vein. Systemic blood pressure was measured through the cannulated femoral artery with an electromanometer. Heart rate was recorded with a cardiotachometer. The regional cerebral blood flow (γ-CBF) was measured using a thermal diffusion flow probe incorporating a Peltier stack. The animals were subjected to positive-pressure ventilation with room-air. A thoracotomy was performed in the third right intercostal space. […] Occlusion was maintained for 10 minutes. After reperfusion, all physiological variables were continuously recorded for 3 hours. After 3 hours of reperfusion, animals were sacrificed. The regional cerebral cortex was removed, weighed and then dried (48 hours at 120° C.) to remove water content. The test drugs were given intravenously 5 minutes before ischemia.

For `Cc1ccc(-c2nc3c(s2)NCCCC3)cc1N` [Example 106, 2-(3-Amino-4-methylphenyl)-5,6,7,8-tetrahydro-4H-thiazolo-[5,4-b]azepine dihydrochloride], the “Effect on decrease in γ-CBF” value (1 mg/kg, i.v., 3 hours after reperfusion) was “significantly inhibited a decrease in γ-CBF 3 hours after reperfusion”, the “Water Content (%) of cerebral cortex” value (1 mg/kg, i.v., 3 hours after reperfusion, control 79.81 ± 0.21) was 78.22 ± 0.08% and the “Decrease rate of γ-CBF 3 hours after reperfusion” value (1 mg/kg, i.v.) was 18.0±3.1%. For the same compound, the “Effect on post-ischemia hypoperfusion in γ-CBF” value (10 mg/kg, i.v.) was “almost completely inhibited the post-ischemia hypoperfusion in γ-CBF”, the “Decrease rate of γ-CBF 3 hours after reperfusion” value (10 mg/kg, i.v.) was 6.5±2.5% and the “Effect on increase in water content in the cerebral cortex” value (3 hours after reperfusion) was “significantly inhibited the increase in water content in the cerebral cortex 3 hours after reperfusion”. For the same compound, the “Time after reperfusion at which γ-CBF recovered to the pre-occlusion level” value (i.v., 5 minutes before ischemia) was 30 min and the “γ-CBF immediately after reperfusion” value (i.v., 5 minutes before ischemia, vs control group) was “transiently increased, with reactive hyperemia to the same extent as that of the control group”.

From patent US5300639A, “Thiazolo [5,4-b]azepine compounds” (Takeda Chemical Industries, Ltd., priority 1992, dated 1994)
